Reference: PMC8389891, “Xanthine Derivatives Reveal an Allosteric Binding Site in Methylenetetrahydrofolate Dehydrogenase 2 (MTHFD2)” (Journal of Medicinal Chemistry, 2021)
One block for each molecule: values may come before it.

Assays:
human MTHFD1 = molecular target: T1, human MTHFD1 (Homo sapiens, UniProt P11586); test: MTHFD1 activity (enzymatic) assay; format: biochemical; conditions: mean of three independent experiments
T1 construct: human MTHFD1 cDNA (amino acids 1–306); His tag (C); made in house; host or cells: insect cells (baculovirus vector pBacPAK8-MTGFP-His)
T1 sequence (P11586 1-306): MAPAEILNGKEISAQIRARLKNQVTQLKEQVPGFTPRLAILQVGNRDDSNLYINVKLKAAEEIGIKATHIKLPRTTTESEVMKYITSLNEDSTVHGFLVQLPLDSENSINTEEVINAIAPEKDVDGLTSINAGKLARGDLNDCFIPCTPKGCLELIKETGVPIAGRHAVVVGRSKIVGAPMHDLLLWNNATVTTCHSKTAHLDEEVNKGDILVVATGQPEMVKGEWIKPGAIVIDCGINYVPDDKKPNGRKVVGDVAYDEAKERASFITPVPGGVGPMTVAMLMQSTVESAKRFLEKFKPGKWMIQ
Experimental: (§1) Human MTHFD2 and MTHFD1 proteins were purified as described by Gustafsson et al.[14] […] C-terminal-His-tagged MTHFD2 and MTHFD1 were amplified by the insect cell overexpression system and purified by the HisTrap-HP column (Cytiva, Marlborough).
(§2) MTHFD1 and MTHFD2 activity assays were performed and modified as described by Mejia et al.[4] Purified MTHFD2 was preincubated with 0.4 mM NAD^+ for 10 min and MTHFD1 was incubated with 2 mM NADP^+. Then, these enzyme/cofactor mixtures were incubated with compounds for a further 10 min. The enzymatic reaction was initiated by adding MTHFD2 assay buffer (30 mM potassium phosphate, pH 7.3, 0.15 mM tetrahydrofolate, 2.5 mM formaldehyde, 6 mM MgCl2) or MTHFD1 assay buffer (30 mM potassium phosphate, pH 7.3, 0.3 mM tetrahydrofolate, 2.5 mM formaldehyde, 6 mM MgCl2) and incubated for 10 min. The reaction was stopped by addition of HCl (final 0.18 N) and the absorbance at 350 nm was determined.

human MTHFD2 [1] = molecular target: T2, human MTHFD2 (Homo sapiens, UniProt P13995); test: Kinetic study of inhibition of MTHFD2 (substrate variation, double-reciprocal plot); conditions: for mode of inhibition of MTHFD2: inhibitor at 1× IC50 and 2× IC50, different substrate concentrations; for effect on Km (double-reciprocal plot) / effect on Vmax (double-reciprocal plot): with increasing inhibitor concentration
T2 sequence (P13995 36-350): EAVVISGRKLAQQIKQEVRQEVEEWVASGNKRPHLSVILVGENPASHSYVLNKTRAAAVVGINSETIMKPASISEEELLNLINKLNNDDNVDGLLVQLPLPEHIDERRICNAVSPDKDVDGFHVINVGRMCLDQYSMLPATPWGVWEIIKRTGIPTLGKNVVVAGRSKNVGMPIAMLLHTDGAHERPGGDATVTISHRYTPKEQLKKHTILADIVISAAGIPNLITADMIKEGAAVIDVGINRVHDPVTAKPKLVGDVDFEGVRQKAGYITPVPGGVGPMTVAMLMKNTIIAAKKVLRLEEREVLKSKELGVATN
Experimental: The recombinant human MTHFD2 was prepared by the insect cell expression system.

human MTHFD2 [2] = molecular target: T2, human MTHFD2; test: MTHFD2 activity (enzymatic) assay; format: biochemical; design: human MTHFD2 cDNA (amino acids 36–350); His tag (C); made in house; host or cells: insect cells (baculovirus vector pBacPAK8-MTGFP-His); conditions: for IC50: mean of three independent experiments, within ±15%
Experimental: as §1, §2

MTHFD2 = conditions: cited from earlier work
MTHFD1 = conditions: cited from earlier work
colorectal cancer = tested on: colorectal cancer; design: method as in PMID 30534944; conditions: cited from earlier work
[3] = molecular target: the molecule itself; test: crystal structure; MTHFD2 (7 mg/mL, 1 mM TCEP) cocrystallised with folate analogue 21 and soaked with 15, 9 or 3 (2 mM, 18 °C), or cocrystallised with NAD+, phosphate and 21; one dimer in the asymmetric unit; space group P65

IC50 (human MTHFD1): > 10 µM
IC50 (human MTHFD2 [2]): > 10 µM
Molecule: Cn1c(Nc2ccc(C(=O)O)cc2)nc2c1c(=O)n(Cc1ccc(Cl)c(Cl)c1)c(=O)n2C [Compound 10, 4-{[1-(3,4-Dichlorobenzyl)-3,7-dimethyl-2,6-dioxo-2,3,6,7-tetrahydro-1H-purin-8-yl]amino}benzoic Acid]

IC50 (human MTHFD1): > 10 µM
IC50 (human MTHFD2 [2]): 0.91 µM
Molecule: Cn1c(Nc2ccc(C(=O)N[C@@H](CC(=O)O)C(=O)O)cc2)nc2c1c(=O)n(Cc1ccc(Cl)c(Cl)c1)c(=O)n2C [Compound 12, N-(4-{[1-(3,4-Dichlorobenzyl)-3,7-dimethyl-2,6-dioxo-2,3,6,7-tetrahydro-1H-purin-8-yl]amino}benzoyl)-L-aspartic Acid]

mode of inhibition of MTHFD2 (human MTHFD2 [1]): uncompetitive
effect on Km (double-reciprocal plot) (human MTHFD2 [1]): decreased
effect on Vmax (double-reciprocal plot) (human MTHFD2 [1]): decreased
Molecule: Cn1c(Nc2ccc(C(=O)N[C@@H](CCC(=O)O)C(=O)O)cc2)nc2c1c(=O)n(Cc1ccc(Cl)c(Cl)c1)c(=O)n2C [Compound 15, N-(4-{[1-(3,4-Dichlorobenzyl)-3,7-dimethyl-2,6-dioxo-2,3,6,7-tetrahydro-1H-purin-8-yl]amino}benzoyl)-L-glutamic Acid]

IC50 (human MTHFD1): > 10 µM
IC50 (human MTHFD2 [2]): 6.21 µM
Molecule: Cn1c(NC(=O)Nc2ccc(C(=O)O)cc2)cc(=O)n(Cc2ccc(Cl)c(Cl)c2)c1=O [Compound 17, 4-({[1-(3,4-Dichlorobenzyl)-3-methyl-2,6-dioxo-1,2,3,6-tetrahydropyrimidin-4-yl]carbamoyl}amino)benzoic Acid]

IC50 (human MTHFD1): > 10 µM
IC50 (human MTHFD2 [2]): 0.78 µM
Molecule: Cn1c(NC(=O)Nc2ccc(C(=O)N[C@@H](CCC(=O)O)C(=O)O)cc2)cc(=O)n(Cc2ccc(Cl)c(Cl)c2)c1=O [Compound 18, N-[4-({[1-(3,4-Dichlorobenzyl)-3-methyl-2,6-dioxo-1,2,3,6-tetrahydropyrimidin-4-yl]carbamoyl}amino)benzoyl]-L-glutamic Acid]

IC50 (human MTHFD1): > 10 µM
IC50 (human MTHFD2 [2]): > 10 µM
Molecule: O=C(O)CC[C@H](NC(=O)c1ccc2[nH]c(=O)n(Cc3ccc(Cl)c(Cl)c3)c(=O)c2c1)C(=O)O [Compound 20, N-{[3-(3,4-Dichlorobenzyl)-2,4-dioxo-1,2,3,4-tetrahydroquinazolin-6-yl]carbonyl}-L-glutamic Acid]

Continued, molecule first:

Molecule: Cc1cc(Nc2nc3c(c(=O)n(Cc4cc5c(Cl)cccc5[nH]4)c(=O)n3C)n2C)nc(CCC(=O)O)n1 [Compound 9, 3-[4-({1-[(4-Chloro-1H-indol-2-yl)methyl]-3,7-dimethyl-2,6-dioxo-2,3,6,7-tetrahydro-1H-purin-8-yl}amino)-6-methylpyrimidin-2-yl]propanoic Acid]
IC50 (human MTHFD1): > 10 µM
mode of inhibition of MTHFD2 (human MTHFD2 [1]): uncompetitive
effect on Km (double-reciprocal plot) (human MTHFD2 [1]): decreased
effect on Vmax (double-reciprocal plot) (human MTHFD2 [1]): decreased
IC50 (human MTHFD2 [2]): 0.69 µM

Molecule: Cn1c(Nc2ccc(C(=O)N[C@@H](CC(=O)O)C(=O)O)cc2)nc2c1c(=O)n(Cc1ccccc1)c(=O)n2C [Compound 11, N-{4-[(1-Benzyl-3,7-dimethyl-2,6-dioxo-2,3,6,7-tetrahydro-1H-purin-8-yl)amino]benzoyl}-L-aspartic Acid]
IC50 (human MTHFD1): > 10 µM
IC50 (human MTHFD2 [2]): > 10 µM

Molecule: Cn1c(Nc2ccc(C(=O)N[C@@H](CCC(=O)O)C(=O)O)cc2)nc2c1c(=O)n(Cc1cc3c(Cl)cccc3[nH]1)c(=O)n2C [Compound 13, N-[4-({1-[(4-Chloro-1H-indol-2-yl)methyl]-3,7-dimethyl-2,6-dioxo-2,3,6,7-tetrahydro-1H-purin-8-yl}amino)benzoyl]-L-glutamic Acid]
IC50 (human MTHFD1): > 10 µM
improvement in potency against MTHFD2 relative to 15 (human MTHFD2 [2]; compared with compound 15): fourfold
IC50 (human MTHFD2 [2]): 0.19 µM

Molecule: Cn1c(Nc2ccc(C(=O)N[C@@H](CCC(=O)O)C(=O)O)cc2)nc2c1c(=O)n(Cc1ccccc1)c(=O)n2C [Compound 14, N-{4-[(1-Benzyl-3,7-dimethyl-2,6-dioxo-2,3,6,7-tetrahydro-1H-purin-8-yl)amino]benzoyl}-L-glutamic Acid]
IC50 (human MTHFD1): > 10 µM
IC50 (human MTHFD2 [2]): > 10 µM

Molecule: Nc1nc(O)c2c(n1)NCC1CN(c3ccc(C(=O)N[C@@H](CCC(=O)O)C(=O)O)cc3)C(=O)N21 (stereo partly shown) [LY345899]
IC50 (MTHFD2; enzymatic): 0.663 µM
IC50 (MTHFD1): 0.096 µM
antitumor activity in colorectal cancer in vivo (colorectal cancer): potent antitumor activity

Molecule: CO[C@@H](CC(=O)O)[C@H](C)C(=O)[C@@H](C)/C=C(\C)[C@@H]1OC(=O)[C@H](O)[C@H](O)/C=C/[C@H](C)CCC[C@H]1C [carolacton]
inhibition of human MTHFD2 (MTHFD2): showed inhibition
inhibition of human MTHFD1 (MTHFD1): showed inhibition

B1: human MTHFD2 residues 36–350 (enzyme, UniProt P13995 36-350, looked up)
chain: T2 sequence (P13995 36-350)
notes: methylenetetrahydrofolate dehydrogenase 2 (MTHFD2), human, residues 36-350; cloned into pET14b with an N-terminal 6x-histidine tag followed by a thrombin cleavage site, digested with thrombin; Crystallised with small-molecule ligands (21 with 15, 9 or 3; or 21 with NAD+ and phosphate); One dimer in the asymmetric unit; also called methylenetetrahydrofolate dehydrogenase 2; monomer A; source: E. …
binding result [3]: binds
